Consider 29 molecules from patent US8835428B2, “Diacylglycerol acyltransferase inhibitors” (Piramal Enterprises Limited, priority 2008, dated 2014).

The target in one experiment is T1, hDGAT1 (Homo sapiens, UniProt O75907).
T1 construct: host or cells: Sf9 insect cells (baculovirus); microsomal preparation
T1 sequence (O75907 1-488): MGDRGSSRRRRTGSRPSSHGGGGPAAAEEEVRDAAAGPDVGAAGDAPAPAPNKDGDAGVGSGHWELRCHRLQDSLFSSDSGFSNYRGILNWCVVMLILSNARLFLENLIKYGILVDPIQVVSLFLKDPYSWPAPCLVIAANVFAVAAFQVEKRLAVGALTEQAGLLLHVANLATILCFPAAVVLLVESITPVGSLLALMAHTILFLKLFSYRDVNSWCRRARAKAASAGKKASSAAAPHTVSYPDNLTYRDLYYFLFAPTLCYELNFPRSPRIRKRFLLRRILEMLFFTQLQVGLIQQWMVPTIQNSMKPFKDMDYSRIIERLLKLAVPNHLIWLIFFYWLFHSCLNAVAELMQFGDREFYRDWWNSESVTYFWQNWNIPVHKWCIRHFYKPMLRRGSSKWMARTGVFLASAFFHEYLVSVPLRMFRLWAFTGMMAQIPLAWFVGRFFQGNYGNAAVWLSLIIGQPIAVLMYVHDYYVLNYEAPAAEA
In words: In-vitro DGAT1 assay (hDGAT1 microsomes from Sf9 cells, 14C oleoyl CoA, triglyceride formation). Format: biochemical. To be noted: At 1 μM. The gist of the method: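 Human DGAT1 in baculovirus-infected Sf9 microsomes (2.5–10 μg), [14C]oleoyl-CoA with 409.5, 1228.5 or 1638 μM 1,2-dioleoyl-sn-glycerol, Tris-HCl pH 7.4 buffer with BSA. Compounds screened at 10, 5 and 1 μM in duplicate. Reaction 10 min at 37 °C; heptane-extracted [14C]triglyceride counted by scintillation.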
As usually defined, the inhibition is the drop in the measured response relative to a control, in per cent. A high value points to a strong effect. As for `Cc1cc(C)cc(NC(=O)Nc2ccc(-c3cc(C(=O)N[C@H](C(=O)O)C(C)C)on3)cc2)c1` [Example 205, (S)-2-(3-(4-(3-(3,5-dimethylphenyl)ureido)phenyl)isoxazole-5-carboxamido)-3-methylbutanoic acid], the inhibition at 1 µM lay in the range of 50 to 75%.

`CC(C)[C@H](NC(=O)c1csc(-c2ccc(NC(=O)Nc3ccc(Cl)cc3Oc3ccccc3)cc2)n1)C(=O)O` [Example 365, (S)-2-(2-(4-(3-(4-chloro-2-phenoxyphenyl)ureido)phenyl)thiazole-4-carboxamido)-3-methylbutanoic acid] registered an inhibition at 1 µM of 50 to 75%. `C=C(NC(=O)c1cc(-c2ccc(NC(=O)Nc3ccc(C)cc3)cc2)no1)C(=O)O` [Example 304, 2-(3-(4-(3-p-tolylureido)phenyl)isoxazole-5-carboxamido)acrylic acid] showed an inhibition at 1 µM of 50 to 75%. On the same count and under the same terms, for `CC(C)[C@@H](NC(=O)c1cc(-c2ccc(NC(=O)Nc3ccc(C#N)cc3)cc2)no1)C(=O)O` [Example 219, (R)-2-(3-(4-(3-(4-Cyanophenyl)ureido)phenyl)isoxazole-5-carboxamido)-3-methylbutanoic acid] the value was 50 to 75%; for `CC(C)[C@H](NC(=O)c1cc(-c2ccc(NC(=O)Nc3ccc(Cl)cc3C(F)(F)F)cc2)no1)C(=O)O` [Example 215, (S)-2-(3-(4-(3-(4-chloro-2-(trifluoromethyl)phenyl)ureido)phenyl)isoxazole-5-carboxamido)-3-methylbutanoic acid], 75 to 100%; for `CC(C)C(NC(=O)c1cc(-c2ccc(NC(=O)C(=O)Nc3cccc(C(F)(F)F)c3)cc2)no1)C(=O)O` (centres unmarked) [Example 337, 3-Methyl-2-(3-(4-(2-oxo-2-(3-(trifluoromethyl)phenylamino)acetamido)phenyl)isoxazole-5-carboxamido)butanoic acid], 0 to 50%. On the same count and under the same terms, for `CC(C)[C@H](NC(=O)c1cc(-c2ccc(NC(=O)Nc3ccc(Cl)cc3)cc2)no1)C(=O)O` [Example 179, (S)-2-(3-(4-(3-(4-Chlorophenyl)ureido)phenyl)isoxazole-5-carboxamido)-3-methylbutanoic acid] the value was 75 to 100%.

`CC(C)[C@H](NC(=O)c1cc(-c2ccc(NC(=O)Nc3ccc(F)c(F)c3F)cc2)no1)C(=O)O` [Example 191, (S)-3-Methyl-2-(3-(4-(3-(2,3,4-trifluorophenyl)ureido)phenyl)isoxazole-5-carboxamido)butanoic acid] yielded an inhibition at 1 µM of 75 to 100%. On the same count and under the same terms, for `CC(C)[C@H](NC(=O)c1csc(-c2ccc(NC(=O)Nc3ccc4c(c3)CCC4)cc2)n1)C(=O)O` [Example 361, (S)-2-(2-(4-(3-(2,3-dihydro-1H-inden-5-yl)ureido)phenyl)thiazole-4-carboxamido)-3-methylbutanoic acid] the value was 0 to 50%; for `CC(C)[C@H](NC(=O)c1cc(-c2ccc(NC(=O)Nc3cccc(Cl)c3)cc2)no1)C(=O)O` [Example 209, (S)-2-(3-(4-(3-(3-chlorophenyl)ureido)phenyl)isoxazole-5-carboxamido)-3-methylbutanoic acid], 75 to 100%; for `CCS/C(=N\[C@@H](C(=O)OC)C(C)C)c1cc(-c2ccc(NC(=O)Nc3ccc(C)cc3)cc2)no1` [Example 225, (R,Z)-Methyl 2-(ethylthio(3-(4-(3-p-tolylureido)phenyl)isoxazol-5-yl)methyleneamino)-3-methylbutanoate], 0 to 50%.

Molecule `CC(C)[C@H](NC(=O)c1cc(-c2ccc(NC(=O)Nc3ccc(F)c(F)c3)cc2)no1)C(=O)O` [Example 130, (S)-2-(3-(4-(3-(3,4-difluorophenyl)ureido)phenyl)isoxazole-5-carboxamido)-3-methylbutanoic acid] registered an inhibition at 1 µM of 75 to 100%.

On to `CC(C)C(NC(=O)c1cc(-c2ccc(NC(=O)C(=O)Nc3ccc(F)cc3F)cc2)no1)C(=O)O` (centres unmarked) [Example 339, 2-(3-(4-(2-(2,4-difluorophenylamino)-2-oxoacetamido)phenyl)isoxazole-5-carboxamido)-3-methylbutanoic acid], for which the inhibition at 1 µM was 0 to 50%.

The experiment is the same for the next values; noted with them: At 5 μM.
The molecule `Cc1cccc(NC(=O)Nc2ccc(-c3cc(C(=O)N[C@H](C(=O)O)C(C)C)on3)cc2)c1` [Example 266, (S)-3-methyl-2-(3-(4-(3-m-tolylureido)phenyl)isoxazole-5-carboxamido)butanoic acid] gave an inhibition at 5 µM of 75 to 100%. `COC(=O)[C@@H](NC(=O)c1nc(-c2ccc(NC(=O)Nc3ccc(OC)cc3)cc2)no1)C(C)C` [Example 344, (S)-Methyl 2-(3-(4-(3-(4-methoxyphenyl)ureido)phenyl)-1,2,4-oxadiazole-5-carboxamido)-3-methylbutanoate] displayed an inhibition at 5 µM of 0 to 50%. Same read-out and setting: the result for `Cc1ccccc1NC(=O)Nc1ccc(-c2cc(C(=O)NC(C(=O)O)C(C)C)on2)cc1` (centres unmarked) [Example 154, 3-methyl-2-(3-(4-(3-o-tolylureido)phenyl)isoxazole-5-carboxamido) butanoic acid] reads 75 to 100%; that for `CC(C)[C@H](NC(=O)c1nc(-c2ccc(NC(=O)Nc3ccc(F)cc3)cc2)no1)C(=O)O` [Example 343, (S)-2-(3-(4-(3-(4-Fluorophenyl)ureido)phenyl)-1,2,4-oxadiazole-5-carboxamido)-3-methylbutanoic acid], 50 to 75%; that for `Cc1cc(NC(=O)Nc2ccccc2F)ccc1-c1cc(C(=O)NC(C(=O)O)C(C)C)on1` (centres unmarked) [Example 136, 2-(3-(4-(3-(2-Fluorophenyl)ureido)-2-methylphenyl)isoxazole-5-carboxamido)-3-methylbutanoic acid], 75 to 100%. `COC(=O)C(NC(=O)c1cc(-c2ccc(NC(=O)Nc3ccccc3C)cc2)no1)C(C)C` (centres unmarked) [Example 153, Methyl 3-methyl-2-(3-(4-(3-o-tolylureido)phenyl)isoxazole-5-carboxamido) butanoate]: the “% inhibition of hDGAT1” value is “+ (>0% Inhibition ≦50)”.

The experiment is the same for the next values; noted with them: At 10 μM.
`COC(=O)C(NC(=O)c1cc(-c2ccc(NC(=O)Nc3ccc(OC)cc3)cc2)no1)C(C)C` (centres unmarked) [Example 127, Methyl 2-(3-(4-(3-(4-methoxyphenyl)ureido)phenyl)isoxazole-5-carboxamido)-3-methylbutanoate] gave an inhibition at 10 µM of 0 to 50%.

Molecule `CCC(C)[C@H](NC(=O)c1cc(-c2ccc(NC(=O)Nc3ccccc3)cc2)no1)C(=O)O` (stereo partly drawn) [Example 79, (S)-3-Methyl-2-({3-[4-(3-phenyl-ureido)-phenyl]-isoxazole-5-carbonyl}-amino)-pentanoic acid] displayed an inhibition at 10 µM of 75 to 100%. On the same count and under the same terms, the result for `COC[C@H](NC(=S)c1cc(-c2cccc(Nc3nc4ccc(F)cc4s3)c2)no1)C(=O)O` [Example 31, (S)-2-({3-[3-(6-Fluoro-benzothiazol-2-ylamino)-phenyl]-isoxazole-5-carbothioyl}-amino)-3-methoxy-propionic acid] reads 0 to 50%; that for `COc1ccc(NC(=O)Nc2ccc(-c3cc(C(=O)NC(C(=O)O)C(C)C)on3)cc2)cc1` (centres unmarked) [Example 128, 2-(3-(4-(3-(4-Methoxyphenyl)ureido)phenyl)isoxazole-5-carboxamido)-3-methylbutanoic acid], 75 to 100%; that for `NC(=S)c1cc(-c2ccc(Nc3nc4ccc(F)cc4s3)cc2)no1` [Example 4, 3-[4-(6-Fluoro-benzothiazol-2-ylamino)-phenyl]-isoxazole-5-carbothioic acid amide], 0 to 50%.

With `COC(=O)[C@@H](NC(=NO)c1cc(-c2ccc(Nc3nc4ccc(F)cc4s3)cc2)no1)C(C)C` [Example 7, (S)-2-({3-[4-(6-Fluoro-benzothiazol-2-ylamino)-phenyl]-N-hydroxy-isoxazole-5-carboximidoyl}-amino)-3-methyl-butyric acid methyl ester], the inhibition at 10 µM was in the range of 50 to 75%.

For `CC(C)[C@@H](NC(=NO)c1cc(-c2ccc(Nc3nc4ccc(F)cc4s3)cc2)no1)C(=O)O` [Example 41, (R)-2-({3-[4-(6-Fluoro-benzothiazol-2-ylamino)-phenyl]-N-hydroxy-isoxazole-5-carboximidoyl}-amino)-3-methyl-butyric acid], the inhibition at 10 µM is 0 to 50%. Same read-out and setting: for `COC(=O)C(C)(C)NC(=O)c1cc(-c2ccc(NC(=O)Nc3ccc(F)cc3)cc2)no1` [Example 117, Methyl 2-(3-(4-(3-(4-fluorophenyl)ureido)phenyl)isoxazole-5-carboxamido)-2-methylpropanoate] the value was 50 to 75%; for `COC(=O)C1(NC(=O)c2cc(-c3ccc(Nc4nc5ccc(F)cc5s4)cc3)no2)CCCC1` [Example 62, 1-({3-[4-(6-fluoro-benzothiazol-2-ylamino)-phenyl]-isoxazole-5-carbonyl}-amino)-cyclopentanecarboxylic acid methyl ester], 0 to 50%. As to `COC(=O)[C@@H](NC(=O)c1cc(-c2ccc(NC(=O)NC3CCCCC3)cc2)no1)C(C)C` [Example 80, (S)-2-(S)-2-({3-[4-(3-cyclohexyl-ureido)-phenyl]-isoxazole-5-carbonyl}-amino)-3-methyl-butyric acid methyl ester], the “% inhibition of hDGAT1” value is recorded as “++ (>50% Inhibition ≦75)”.
